How the values were obtained:
Type in all cases: biochemical
HSD17B4 = biological target: T1, HSD17B4 (Homo sapiens, UniProt P51659); assay: Steroid substrate panel against HSD17B family member B4; settings: substrate at 50 μM; estradiol set as 100%
T1 construct: made in house
T1 sequence (P51659 1-736): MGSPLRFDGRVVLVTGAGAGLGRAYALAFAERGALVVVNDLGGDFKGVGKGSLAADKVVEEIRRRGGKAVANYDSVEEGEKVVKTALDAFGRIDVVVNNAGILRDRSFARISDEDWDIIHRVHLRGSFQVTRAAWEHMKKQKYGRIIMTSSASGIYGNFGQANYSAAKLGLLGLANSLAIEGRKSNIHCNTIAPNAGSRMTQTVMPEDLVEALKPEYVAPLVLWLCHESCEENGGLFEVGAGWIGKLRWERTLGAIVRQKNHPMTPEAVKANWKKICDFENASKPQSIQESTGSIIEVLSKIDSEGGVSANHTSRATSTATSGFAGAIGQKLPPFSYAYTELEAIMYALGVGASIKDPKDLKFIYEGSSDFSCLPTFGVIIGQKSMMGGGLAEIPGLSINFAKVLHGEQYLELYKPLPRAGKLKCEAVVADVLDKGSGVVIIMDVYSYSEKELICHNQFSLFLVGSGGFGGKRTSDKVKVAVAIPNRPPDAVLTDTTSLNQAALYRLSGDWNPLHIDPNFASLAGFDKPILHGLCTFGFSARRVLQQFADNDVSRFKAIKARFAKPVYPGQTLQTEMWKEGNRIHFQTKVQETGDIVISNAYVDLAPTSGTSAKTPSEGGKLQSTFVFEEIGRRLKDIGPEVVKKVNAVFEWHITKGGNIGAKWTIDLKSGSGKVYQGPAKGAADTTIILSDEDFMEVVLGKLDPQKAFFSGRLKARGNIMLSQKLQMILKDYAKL
Protocol: (§1) To understand the functional consequences of premature truncation of the HSD17B13 protein due to rs72613567:TA (the associated variant, rs72613567, is an insertion of an adenine adjacent to the donor splice site of exon six (TA allele)), the enzymatic activity of isoforms A and D was evaluated in vitro using recombinant protein and nicotinamide […] dinucleotide as cofactor. Reactions were performed in a final volume of 40 μl of assay buffer (0.2 M Tris-HCl, pH 7.5) which contained 500 μM NAD^+, 5 μM bioactive lipid or 50 μM steroid (all in a final concentration of 5% DMSO), and 100 ng of recombinant human HSD17B13. Reactions were incubated for 3 hours, at 23° C., after which an equal volume detection reagent was added. Following a 1 hour incubation at 23° C., the relative light units (RLUs) were measured on an Envision Plate Reader (Perkin Elmer). Raw RLU values were normalized as percent of control (50 μM estradiol) following subtraction of negative control (5% DMSO) using the following formula: Percent of control (POC)=100×(Sample (RLU)−Negative CTRLaverage)/(Positive CTRLaverage−Negative CTRLaverage).
(§2) In order to determine specificity of compounds with inhibitory activity against HSD17B13, assays for selected members of the HSD17B family which includes HSD17B1-HSD17B14 were established. As a first step, selected family members were expressed, purified and tested for activity a using a steroid substrate panel. Substrates from the steroid panel were tested at 50 μM, using the standard assay protocol. Activity against the substrates for each HSD17B family member were normalized to Percent of Control (POC). The control, estradiol, was set as 100%.

HSD17B11 = biological target: T2, HSD17B11 (Homo sapiens, UniProt Q8NBQ5); assay: Steroid substrate panel against HSD17B family member B11; settings: substrate at 50 μM; estradiol set as 100%
T2 construct: made in house
T2 sequence (Q8NBQ5 20-300): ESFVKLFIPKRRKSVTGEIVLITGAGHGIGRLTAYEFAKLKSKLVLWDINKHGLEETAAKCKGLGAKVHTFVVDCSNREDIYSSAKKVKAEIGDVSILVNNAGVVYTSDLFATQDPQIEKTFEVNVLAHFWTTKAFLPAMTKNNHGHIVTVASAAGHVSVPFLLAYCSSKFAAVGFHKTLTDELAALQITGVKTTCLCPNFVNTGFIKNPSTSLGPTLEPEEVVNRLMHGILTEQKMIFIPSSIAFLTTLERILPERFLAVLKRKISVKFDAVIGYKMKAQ
Protocol: as §1, §2

HSD17B1 = biological target: T3, HSD17B1 (Homo sapiens, UniProt P14061); assay: Steroid substrate panel against HSD17B family member B1; settings: substrate at 50 μM; estradiol set as 100%
T3 construct: made in house
T3 sequence (P14061 1-328): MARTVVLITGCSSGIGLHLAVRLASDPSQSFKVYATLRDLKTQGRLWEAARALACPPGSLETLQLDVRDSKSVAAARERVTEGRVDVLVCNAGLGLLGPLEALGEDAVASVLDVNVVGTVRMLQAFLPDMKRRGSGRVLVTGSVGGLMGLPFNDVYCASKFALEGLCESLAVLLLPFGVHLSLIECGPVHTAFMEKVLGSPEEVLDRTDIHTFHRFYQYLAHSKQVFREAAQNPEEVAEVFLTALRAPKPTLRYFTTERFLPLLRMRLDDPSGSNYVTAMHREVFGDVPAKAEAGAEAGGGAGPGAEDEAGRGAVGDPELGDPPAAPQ
Protocol: as §1, §2

HSD17B5 = biological target: T4, HSD17B5 (Homo sapiens, UniProt P42330); assay: Steroid substrate panel against HSD17B family member B5; settings: substrate at 50 μM; estradiol set as 100%
T4 construct: made in house
T4 sequence (P42330 1-323): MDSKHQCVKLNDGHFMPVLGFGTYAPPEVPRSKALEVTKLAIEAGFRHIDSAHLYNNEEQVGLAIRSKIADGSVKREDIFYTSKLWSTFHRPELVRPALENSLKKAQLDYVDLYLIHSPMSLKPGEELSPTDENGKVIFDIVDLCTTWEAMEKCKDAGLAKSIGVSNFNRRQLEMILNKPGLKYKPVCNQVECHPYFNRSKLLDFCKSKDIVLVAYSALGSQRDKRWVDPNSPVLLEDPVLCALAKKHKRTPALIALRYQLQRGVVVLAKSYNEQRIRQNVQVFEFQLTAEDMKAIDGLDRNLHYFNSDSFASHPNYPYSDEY
Protocol: as §1, §2

HSD17B2 = biological target: T5, HSD17B2 (Homo sapiens, UniProt P37059); assay: Steroid substrate panel against HSD17B family member B2; settings: substrate at 50 μM; estradiol set as 100%
T5 construct: made in house
T5 sequence (P37059 1-387): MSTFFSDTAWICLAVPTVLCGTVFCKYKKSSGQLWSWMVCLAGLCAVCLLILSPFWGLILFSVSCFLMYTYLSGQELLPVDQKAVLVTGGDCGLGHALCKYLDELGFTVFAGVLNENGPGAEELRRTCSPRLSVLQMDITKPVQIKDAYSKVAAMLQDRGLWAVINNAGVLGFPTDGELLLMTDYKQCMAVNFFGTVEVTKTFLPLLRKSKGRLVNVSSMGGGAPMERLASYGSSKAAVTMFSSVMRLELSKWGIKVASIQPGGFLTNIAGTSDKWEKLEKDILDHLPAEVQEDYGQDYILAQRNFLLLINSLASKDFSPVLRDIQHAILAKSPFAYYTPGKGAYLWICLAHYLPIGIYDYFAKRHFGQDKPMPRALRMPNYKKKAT
Protocol: as §1, §2

HSD17B10 = biological target: T6, HSD17B10 (Homo sapiens, UniProt Q99714); assay: Steroid substrate panel against HSD17B family member B10; settings: substrate at 50 μM; estradiol set as 100%
T6 construct: made in house
T6 sequence (Q99714 1-261): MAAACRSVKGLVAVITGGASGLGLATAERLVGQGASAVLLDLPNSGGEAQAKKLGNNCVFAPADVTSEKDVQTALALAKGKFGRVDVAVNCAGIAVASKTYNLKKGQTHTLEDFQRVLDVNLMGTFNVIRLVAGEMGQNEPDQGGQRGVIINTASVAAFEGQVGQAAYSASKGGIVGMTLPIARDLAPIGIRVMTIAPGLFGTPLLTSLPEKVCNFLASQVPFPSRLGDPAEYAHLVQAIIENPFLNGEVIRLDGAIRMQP
Protocol: as §1, §2

human HSD17B13 = biological target: T7, human HSD17B13 (Homo sapiens, UniProt Q7Z5P4); assay: Substrate screening of steroid and bioactive lipid libraries against purified recombinant HSD17B13 (NADH-linked luciferase assay); settings: for HSD17B13 Enzymatic Activity Relative Light Units: 500 μM NAD+, 100 ng enzyme, 3 hours at 23° C.; for HSD17B13 Enzymatic Activity Percent Estradiol Control: normalized to 50 μM estradiol after subtraction of 5% DMSO
T7 sequence (Q7Z5P4 20-300): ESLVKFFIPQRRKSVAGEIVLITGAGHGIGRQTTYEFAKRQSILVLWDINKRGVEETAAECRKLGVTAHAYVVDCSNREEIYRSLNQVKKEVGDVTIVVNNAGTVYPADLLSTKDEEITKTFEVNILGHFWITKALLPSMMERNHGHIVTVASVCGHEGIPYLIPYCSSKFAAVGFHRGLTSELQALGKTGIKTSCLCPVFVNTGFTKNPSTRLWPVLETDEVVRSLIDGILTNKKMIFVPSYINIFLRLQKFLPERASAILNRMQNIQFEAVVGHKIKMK
Outline: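 Recombinant human HSD17B13 (100 ng) incubated 3 h at 23° C in 0.2 M Tris-HCl pH 7.5 with 500 μM NAD+ and 5 μM bioactive lipid or 50 μM steroid (5% DMSO). NADH measured by luciferase luminescence after 1 h; values as percent of 50 μM estradiol control after 5% DMSO subtraction.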

[1] = Bioactive Lipid Library, 5 μM bioactive lipid (Estradiol Control 50 μM)
[2] = Bioactive Lipid Library, 5 μM bioactive lipid

Compound	Percent of Control (POC), B4 (HSD17B4) [%]	Percent of Control (POC), B11 (HSD17B11) [%]	Percent of Control (POC), B1 (HSD17B1) [%]	Percent of Control (POC), B5 (HSD17B5) [%]	Percent of Control (POC), B2 (HSD17B2) [%]	Percent of Control (POC), B10 (HSD17B10) [%]	HSD17B13 Enzymatic Activity Relative Light Units (human HSD17B13; Steroid Library, 50 μM steroid) [RLU]	HSD17B13 Enzymatic Activity Percent Estradiol Control (human HSD17B13; Steroid Library, 50 μM steroid) [%]	HSD17B13 Enzymatic Activity Relative Light Units (human HSD17B13; [1]) [RLU]	HSD17B13 Enzymatic Activity Percent Estradiol Control (human HSD17B13; [2]) [%]
C[C@]12CC[C@@H](O)C[C@@H]1CC[C@@H]1[C@@H]2CC[C@]2(C)[C@@H](O)CC[C@@H]12 [3a-androstanediol]	16.4	0.0	0.0	196	6.2	−0.4	–	–	–	–
C[C@]12CC[C@@H](O)C[C@@H]1CC[C@@H]1[C@@H]2[C@@H](O)C[C@@]2(C)[C@H]1CC[C@]2(O)C(=O)CO [5alpha-Tetrahydrocortisol]	0.2	0.0	−0.1	0	3.1	46.3	229040	1.20	–	–
C[C@]12CC[C@H](O)C[C@@H]1CC[C@@H]1[C@@H]2CC[C@]2(C)[C@@H](O)CC[C@@H]12 [5alpha-androstane-3beta,17beta-diol]	38.9	0.0	0.3	0	42.5	1.2	398600	4.16	–	–
CC[C@H]1[C@@H](O)[C@@H]2[C@H](CC[C@]3(C)[C@@H]([C@H](C)CCC(=O)O)CC[C@@H]23)[C@@]2(C)CC[C@@H](O)C[C@@H]12 [6-ethylchenodeoxycholic acid]	4.6	0.0	0.0	192	0.1	39.3	76200	−1.47	–	–
Ptdlns-(3)-P1 (1,2-dipalmitoyl) (ammonium salt)	–	–	–	–	–	–	–	–	15520	−23.38
Ptdlns-(3,4)-P2 (1,2-dipalmitoyl) (sodium salt)	–	–	–	–	–	–	–	–	351680	2.01
Ptdlns-(3,4,5)-P3 (1,2-dipalmitoyl) (sodium salt)	–	–	–	–	–	–	–	–	334600	0.72
Ptdlns-(4)-P1 (1,2-dipalmitoyl) (ammonium salt)	–	–	–	–	–	–	–	–	123240	−15.24
Ptdlns-(4,5)-P2 (1,2-dioctanoyl) (sodium salt)	–	–	–	–	–	–	–	–	348680	1.79
Ptdlns-(4,5)-P2 (1,2-dipalmitoyl) (ammonium salt)	–	–	–	–	–	–	–	–	24120	−22.73
Ptdlns-(5)-P1 (1,2-dipalmitoyl) (ammonium salt)	–	–	–	–	–	–	–	–	19160	−23.10

Source: patent publication US11479802B2, “Assays for screening activity of modulators of members of the hydroxy steroid (17-beta) dehydrogenase (HSD17B) family” (Regeneron Pharmaceuticals, Inc., priority 2017, dated 2022)
